Reference: the supplement of paper PMC11451515

How the values were obtained:
Details in all cases: 48 h
NOMO1 [1] = experiment: cell viability relative to DMSO control; higher = less cytotoxic
Procedure, shortened: (§1)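 Before seeding, each leukemia line was adapted for at least four passages in each medium. NOMO1 or SEM cells (500 cells/well) and P12-Ichikawa cells (1000 cells/well) went into 1536-well plates at 5 μl, then received library compounds in DMSO by pin dosing across 11 threefold concentrations, 47 μM to 0.79 nM. Readout was CellTiter-Glo One luminescence after 48 h at 37°C, and viability is given as a per-plate percentage of DMSO wells, with cell-free wells as background.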

P12-Ichikawa [2] = experiment: as above
Procedure, shortened: as §1

SEM cells [3] = experiment: as above
Procedure, shortened: as §1

NOMO1 [4] = experiment: AUC of viability dose-response curve (% viability x log10 dose units); higher = less sensitive
Procedure, shortened: (§2)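 Leukemia cells adapted to each medium were seeded in 1536-well plates (500 or 1000 cells/well). They were dosed with library compounds in DMSO at 11 threefold doses, 47 μM to 0.79 nM, for 48 h at 37°C. CellTiter-Glo One luminescence was normalised per plate to DMSO and cell-free wells. Area under the curve was integrated by trapezoidal rule over log10 doses on a four-parameter log-logistic fit; curves exceeding full viability were scaled and curves failing quality control removed.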

P12-Ichikawa [5] = experiment: as above
Procedure, shortened: as §2

SEM cells [6] = experiment: as above
Procedure, shortened: as §2

Cc1c(CCOc2ccc(C(=O)O)cc2)c2cc(Cl)ccc2n1C(c1ccccc1)c1ccccc1
cell viability [%]
Details | NOMO1 [1] | P12-Ichikawa [2] | SEM cells [3]
HPLM + 10% dialyzed FBS, 0.000781 µM | 119 | 123 | 112
HPLM + 10% dialyzed FBS, 0.00234 µM | 121 | 110 | 118
HPLM + 10% dialyzed FBS, 0.00702 µM | 111 | 112 | 104
HPLM + 10% dialyzed FBS, 0.0211 µM | 116 | 117 | 113
HPLM + 10% dialyzed FBS, 0.0632 µM | 109 | 113 | 109
HPLM + 10% dialyzed FBS, 0.19 µM | 107 | 113 | 105
HPLM + 10% dialyzed FBS, 0.569 µM | 115 | 107 | 108
HPLM + 10% dialyzed FBS, 1.71 µM | 123 | 105 | 114
HPLM + 10% dialyzed FBS, 5.12 µM | 105 | 101 | 105
HPLM + 10% dialyzed FBS, 15.4 µM | 95 | 83.8 | 108
HPLM + 10% dialyzed FBS, 46.1 µM | 73.8 | 71.8 | 79.3
RPMI 5 mM glucose + 10% FBS, 0.000781 µM | 108 | 109 | 110
RPMI 5 mM glucose + 10% FBS, 0.00234 µM | 103 | 112 | 108
RPMI 5 mM glucose + 10% FBS, 0.00702 µM | 108 | 111 | 104
RPMI 5 mM glucose + 10% FBS, 0.0211 µM | 108 | 111 | 118
RPMI 5 mM glucose + 10% FBS, 0.0632 µM | 112 | 108 | 94.3
RPMI 5 mM glucose + 10% FBS, 0.19 µM | 97.9 | 108 | 104
RPMI 5 mM glucose + 10% FBS, 0.569 µM | 94.8 | 112 | 94.9
RPMI 5 mM glucose + 10% FBS, 1.71 µM | 74.8 | 101 | 102
RPMI 5 mM glucose + 10% FBS, 5.12 µM | 98.7 | 106 | 106
RPMI 5 mM glucose + 10% FBS, 15.4 µM | 99.9 | 103 | 106
RPMI 5 mM glucose + 10% FBS, 46.1 µM | 93.6 | 86.1 | 92.7
RPMI 5 mM glucose + 10% dialyzed FBS, 0.000781 µM | 111 | 109 | 114
RPMI 5 mM glucose + 10% dialyzed FBS, 0.00234 µM | 124 | 111 | 110
RPMI 5 mM glucose + 10% dialyzed FBS, 0.00702 µM | 125 | 116 | 97.1
RPMI 5 mM glucose + 10% dialyzed FBS, 0.0211 µM | 120 | 116 | 109
RPMI 5 mM glucose + 10% dialyzed FBS, 0.0632 µM | 116 | 107 | 95.9
RPMI 5 mM glucose + 10% dialyzed FBS, 0.19 µM | 106 | 110 | 109
RPMI 5 mM glucose + 10% dialyzed FBS, 0.569 µM | 98.6 | 104 | 111
RPMI 5 mM glucose + 10% dialyzed FBS, 1.71 µM | 115 | 113 | 104
RPMI 5 mM glucose + 10% dialyzed FBS, 5.12 µM | 113 | 99.3 | 107
RPMI 5 mM glucose + 10% dialyzed FBS, 15.4 µM | 101 | 103 | 95.3
RPMI 5 mM glucose + 10% dialyzed FBS, 46.1 µM | 97.3 | 88.8 | 92.5

AUC of viability dose-response curve
Details | NOMO1 [4] | P12-Ichikawa [5] | SEM cells [6]
HPLM + 10% dialyzed FBS | 457 | 442 | 470
RPMI 5 mM glucose + 10% FBS | 442 | 468 | 450
RPMI 5 mM glucose + 10% dialyzed FBS | 443 | 459 | 451

O=NN(CCCl)C(=O)NCCCl
cell viability [%]
Details | NOMO1 [1] | P12-Ichikawa [2] | SEM cells [3]
HPLM + 10% dialyzed FBS, 0.000781 µM | 89.1 | 87 | 75.9
HPLM + 10% dialyzed FBS, 0.00234 µM | 107 | 94.8 | 89
HPLM + 10% dialyzed FBS, 0.00702 µM | 99.1 | 108 | 117
HPLM + 10% dialyzed FBS, 0.0211 µM | 116 | 103 | 86.6
HPLM + 10% dialyzed FBS, 0.0632 µM | 128 | 103 | 100
HPLM + 10% dialyzed FBS, 0.19 µM | 113 | 114 | 121
HPLM + 10% dialyzed FBS, 0.569 µM | 127 | 100 | 107
HPLM + 10% dialyzed FBS, 1.71 µM | 101 | 101 | 121
HPLM + 10% dialyzed FBS, 5.12 µM | 106 | 102 | 94.1
HPLM + 10% dialyzed FBS, 15.4 µM | 127 | 104 | 110
HPLM + 10% dialyzed FBS, 46.1 µM | 109 | 95.2 | 85.8
RPMI 5 mM glucose + 10% FBS, 0.000781 µM | 84.4 | 83.3 | 85.4
RPMI 5 mM glucose + 10% FBS, 0.00234 µM | 99.3 | 97.9 | 105
RPMI 5 mM glucose + 10% FBS, 0.00702 µM | 102 | 100 | 104
RPMI 5 mM glucose + 10% FBS, 0.0211 µM | 104 | 96.3 | 110
RPMI 5 mM glucose + 10% FBS, 0.0632 µM | 118 | 109 | 121
RPMI 5 mM glucose + 10% FBS, 0.19 µM | 116 | 100 | 119
RPMI 5 mM glucose + 10% FBS, 0.569 µM | 107 | 97.2 | 119
RPMI 5 mM glucose + 10% FBS, 1.71 µM | 120 | 93.6 | 125
RPMI 5 mM glucose + 10% FBS, 5.12 µM | 110 | 103 | 129
RPMI 5 mM glucose + 10% FBS, 15.4 µM | 110 | 99.3 | 118
RPMI 5 mM glucose + 10% FBS, 46.1 µM | 101 | 98.6 | 102
RPMI 5 mM glucose + 10% dialyzed FBS, 0.000781 µM | 91.4 | 87 | 80.1
RPMI 5 mM glucose + 10% dialyzed FBS, 0.00234 µM | 94.5 | 95.8 | 88.3
RPMI 5 mM glucose + 10% dialyzed FBS, 0.00702 µM | 109 | 104 | 100
RPMI 5 mM glucose + 10% dialyzed FBS, 0.0211 µM | 112 | 99.7 | 87.4
RPMI 5 mM glucose + 10% dialyzed FBS, 0.0632 µM | 101 | 106 | 113
RPMI 5 mM glucose + 10% dialyzed FBS, 0.19 µM | 98.9 | 99.7 | 108
RPMI 5 mM glucose + 10% dialyzed FBS, 0.569 µM | 108 | 94.6 | 102
RPMI 5 mM glucose + 10% dialyzed FBS, 1.71 µM | 109 | 100 | 117
RPMI 5 mM glucose + 10% dialyzed FBS, 5.12 µM | 102 | 97.2 | 111
RPMI 5 mM glucose + 10% dialyzed FBS, 15.4 µM | 109 | 102 | 107
RPMI 5 mM glucose + 10% dialyzed FBS, 46.1 µM | 97.9 | 100 | 84.3

AUC of viability dose-response curve
Details | NOMO1 [4] | P12-Ichikawa [5] | SEM cells [6]
HPLM + 10% dialyzed FBS | 462 | 465 | 463
RPMI 5 mM glucose + 10% FBS | 461 | 471 | 455
RPMI 5 mM glucose + 10% dialyzed FBS | 463 | 472 | 456
